Reference: PMC3699191 (Journal of medicinal chemistry, 2010)

Target: mCB2 (membranes from HEK293 cells expressing mouse CB2) (Mus musculus, UniProt P47936)
Assay: Mouse CB2 binding assay, [3H]CP-55,940 competition
Conditions: CB2 over CB1

mCB2 (membranes from HEK293 cells expressing mouse CB2), sequence (P47936 whole entry): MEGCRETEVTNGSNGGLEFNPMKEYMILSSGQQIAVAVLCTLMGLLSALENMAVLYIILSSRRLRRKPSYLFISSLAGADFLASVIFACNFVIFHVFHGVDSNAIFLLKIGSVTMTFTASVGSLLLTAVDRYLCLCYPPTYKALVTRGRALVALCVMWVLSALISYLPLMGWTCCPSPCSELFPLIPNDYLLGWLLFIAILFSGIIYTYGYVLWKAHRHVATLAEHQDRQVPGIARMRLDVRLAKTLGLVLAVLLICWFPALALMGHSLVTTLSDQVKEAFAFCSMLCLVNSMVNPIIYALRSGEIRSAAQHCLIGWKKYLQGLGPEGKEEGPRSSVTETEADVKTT

`CC1(C)Oc2cc(C34CC5CC(CC(C5)O3)C4)cc(O)c2[C@@H]2C[C@H](O)CC[C@H]21` [compound 16] was tested, and the “selectivity for CB2” value was 2 fold.
